Results published in ChEMBL document CHEMBL4340536, “Design, synthesis and structure-activity relationship study of aminopyridine derivatives as novel inhibitors of Janus kinase 2” (Bioorg Med Chem Lett, 2019).
pIC50: −log10 of the molar value. The source made the active and inactive calls. The calls are words filed in the database; no cut-off is given here.

Experiments:
Homo sapiens [1] = species: Homo sapiens; assay: Selectivity ratio of IC50 for human recombinant N-terminal hexahistidine tagged JAK1 JH1 catalytic domain (854 to 1154 residues) expressed in baculovirus infected Sf9 cells to IC50 for human recombinant N-terminal hexahistidine tagged JAK2 JH1 catalytic domain (835 to 1132 residues) expressed in baculovirus infected Sf9 cells
Homo sapiens [2] = species: Homo sapiens; assay: Selectivity ratio of IC50 for human recombinant C-terminal hexahistidine tagged JAK3 JH1 catalytic domain (811 to 1124 residues) expressed in baculovirus infected Sf9 cells to IC50 for human recombinant N-terminal hexahistidine tagged JAK2 JH1 catalytic domain (835 to 1132 residues) expressed in baculovirus infected Sf9 cells
[3] = target: Non-receptor tyrosine-protein kinase TYK2 (Homo sapiens, UniProt P29597); assay: Inhibition of TYK2 (unknown origin) using peptide as substrate preincubated for 10 mins followed by substrate addition by mobility shift assay
Chain of Non-receptor tyrosine-protein kinase TYK2 (P29597 whole entry, the tested form may be a part): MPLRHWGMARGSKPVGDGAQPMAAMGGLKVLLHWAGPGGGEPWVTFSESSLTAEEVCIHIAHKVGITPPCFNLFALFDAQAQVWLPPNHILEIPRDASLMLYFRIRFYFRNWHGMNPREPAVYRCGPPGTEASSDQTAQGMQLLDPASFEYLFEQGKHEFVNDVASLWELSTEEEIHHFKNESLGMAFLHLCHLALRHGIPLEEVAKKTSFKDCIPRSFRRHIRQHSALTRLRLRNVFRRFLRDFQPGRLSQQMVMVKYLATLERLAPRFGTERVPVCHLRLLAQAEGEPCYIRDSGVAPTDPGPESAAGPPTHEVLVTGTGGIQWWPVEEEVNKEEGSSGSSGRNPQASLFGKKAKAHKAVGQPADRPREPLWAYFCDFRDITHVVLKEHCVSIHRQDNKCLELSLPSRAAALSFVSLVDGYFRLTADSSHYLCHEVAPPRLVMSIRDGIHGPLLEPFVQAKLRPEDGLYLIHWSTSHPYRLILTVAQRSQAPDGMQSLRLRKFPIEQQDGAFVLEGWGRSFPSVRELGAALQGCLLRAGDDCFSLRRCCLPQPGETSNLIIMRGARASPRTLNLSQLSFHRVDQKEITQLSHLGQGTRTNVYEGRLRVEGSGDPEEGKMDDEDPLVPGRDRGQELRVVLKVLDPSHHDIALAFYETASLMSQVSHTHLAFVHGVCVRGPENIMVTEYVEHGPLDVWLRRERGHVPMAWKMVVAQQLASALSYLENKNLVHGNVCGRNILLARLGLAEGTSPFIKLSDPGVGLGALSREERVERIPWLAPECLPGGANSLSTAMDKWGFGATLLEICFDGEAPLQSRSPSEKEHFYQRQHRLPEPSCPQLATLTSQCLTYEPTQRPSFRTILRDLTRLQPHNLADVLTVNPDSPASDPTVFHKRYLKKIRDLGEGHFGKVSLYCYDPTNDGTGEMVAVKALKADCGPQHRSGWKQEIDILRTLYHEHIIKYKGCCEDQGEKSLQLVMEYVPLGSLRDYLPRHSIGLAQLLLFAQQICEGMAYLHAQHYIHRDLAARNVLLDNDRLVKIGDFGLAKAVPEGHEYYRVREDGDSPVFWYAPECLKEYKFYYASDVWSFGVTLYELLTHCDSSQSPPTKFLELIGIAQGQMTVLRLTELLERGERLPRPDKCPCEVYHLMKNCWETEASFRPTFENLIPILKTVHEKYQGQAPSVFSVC

Homo sapiens [4] = species: Homo sapiens; assay: Selectivity ratio of IC50 for TYK2 (unknown origin) to IC50 for human recombinant N-terminal hexahistidine tagged JAK2 JH1 catalytic domain (835 to 1132 residues) expressed in baculovirus infected Sf9 cells
HEL = assay: Antiproliferative activity against HEL cells harboring JAK2 V617F mutant measured after 3 days by CCK8 assay; format: functional, cell-based; conditions: Homo sapiens, 72 h
[5] = target: Tyrosine-protein kinase JAK1 (Homo sapiens, UniProt P23458); assay: Inhibition of human recombinant N-terminal hexahistidine tagged JAK1 JH1 catalytic domain (854 to 1154 residues) expressed in baculovirus infected Sf9 cells using Tyr6 peptide as substrate incubated for 30 secs under shaking condition measured after 1 hr by Z'-LYTE assay
Chain of Tyrosine-protein kinase JAK1 (P23458 whole entry, the tested form may be a part): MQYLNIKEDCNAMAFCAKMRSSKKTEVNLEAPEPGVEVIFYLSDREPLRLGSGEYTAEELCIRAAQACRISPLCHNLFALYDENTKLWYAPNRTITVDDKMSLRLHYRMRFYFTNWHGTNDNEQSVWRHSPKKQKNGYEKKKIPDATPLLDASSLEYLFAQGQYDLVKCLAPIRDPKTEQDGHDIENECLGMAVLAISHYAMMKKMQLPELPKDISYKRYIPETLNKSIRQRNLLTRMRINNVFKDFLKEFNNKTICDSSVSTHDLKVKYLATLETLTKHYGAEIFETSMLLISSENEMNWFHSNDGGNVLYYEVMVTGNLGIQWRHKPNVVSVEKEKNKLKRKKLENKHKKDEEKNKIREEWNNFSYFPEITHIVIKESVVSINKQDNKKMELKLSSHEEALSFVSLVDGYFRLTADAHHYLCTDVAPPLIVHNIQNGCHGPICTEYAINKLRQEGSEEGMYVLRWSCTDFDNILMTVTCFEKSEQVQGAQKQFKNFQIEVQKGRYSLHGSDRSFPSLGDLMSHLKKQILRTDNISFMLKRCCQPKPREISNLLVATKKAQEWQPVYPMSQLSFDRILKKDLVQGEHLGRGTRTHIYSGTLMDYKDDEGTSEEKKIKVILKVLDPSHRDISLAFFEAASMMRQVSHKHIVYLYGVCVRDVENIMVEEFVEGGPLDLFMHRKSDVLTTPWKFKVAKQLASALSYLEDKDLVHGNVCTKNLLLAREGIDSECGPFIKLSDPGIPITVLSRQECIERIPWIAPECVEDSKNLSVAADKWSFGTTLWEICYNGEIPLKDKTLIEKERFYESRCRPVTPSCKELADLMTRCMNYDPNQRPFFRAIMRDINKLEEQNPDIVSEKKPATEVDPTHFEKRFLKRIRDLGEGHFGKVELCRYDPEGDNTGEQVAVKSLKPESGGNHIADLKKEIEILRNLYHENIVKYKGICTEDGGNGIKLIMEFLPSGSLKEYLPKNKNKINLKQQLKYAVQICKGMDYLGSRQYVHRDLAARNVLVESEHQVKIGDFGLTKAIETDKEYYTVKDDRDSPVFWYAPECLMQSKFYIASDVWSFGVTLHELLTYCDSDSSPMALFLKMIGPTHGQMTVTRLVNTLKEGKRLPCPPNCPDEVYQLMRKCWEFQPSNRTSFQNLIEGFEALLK

[6] = target: T1, Tyrosine-protein kinase JAK3 (Homo sapiens, UniProt P52333); assay: Inhibition of human recombinant C-terminal hexahistidine tagged JAK3 JH1 catalytic domain (811 to 1124 residues) expressed in baculovirus infected Sf9 cells using Tyr6 peptide as substrate incubated for 30 secs under shaking condition measured after 1 hr by Z'-LYTE assay
T1 sequence (P52333 whole entry): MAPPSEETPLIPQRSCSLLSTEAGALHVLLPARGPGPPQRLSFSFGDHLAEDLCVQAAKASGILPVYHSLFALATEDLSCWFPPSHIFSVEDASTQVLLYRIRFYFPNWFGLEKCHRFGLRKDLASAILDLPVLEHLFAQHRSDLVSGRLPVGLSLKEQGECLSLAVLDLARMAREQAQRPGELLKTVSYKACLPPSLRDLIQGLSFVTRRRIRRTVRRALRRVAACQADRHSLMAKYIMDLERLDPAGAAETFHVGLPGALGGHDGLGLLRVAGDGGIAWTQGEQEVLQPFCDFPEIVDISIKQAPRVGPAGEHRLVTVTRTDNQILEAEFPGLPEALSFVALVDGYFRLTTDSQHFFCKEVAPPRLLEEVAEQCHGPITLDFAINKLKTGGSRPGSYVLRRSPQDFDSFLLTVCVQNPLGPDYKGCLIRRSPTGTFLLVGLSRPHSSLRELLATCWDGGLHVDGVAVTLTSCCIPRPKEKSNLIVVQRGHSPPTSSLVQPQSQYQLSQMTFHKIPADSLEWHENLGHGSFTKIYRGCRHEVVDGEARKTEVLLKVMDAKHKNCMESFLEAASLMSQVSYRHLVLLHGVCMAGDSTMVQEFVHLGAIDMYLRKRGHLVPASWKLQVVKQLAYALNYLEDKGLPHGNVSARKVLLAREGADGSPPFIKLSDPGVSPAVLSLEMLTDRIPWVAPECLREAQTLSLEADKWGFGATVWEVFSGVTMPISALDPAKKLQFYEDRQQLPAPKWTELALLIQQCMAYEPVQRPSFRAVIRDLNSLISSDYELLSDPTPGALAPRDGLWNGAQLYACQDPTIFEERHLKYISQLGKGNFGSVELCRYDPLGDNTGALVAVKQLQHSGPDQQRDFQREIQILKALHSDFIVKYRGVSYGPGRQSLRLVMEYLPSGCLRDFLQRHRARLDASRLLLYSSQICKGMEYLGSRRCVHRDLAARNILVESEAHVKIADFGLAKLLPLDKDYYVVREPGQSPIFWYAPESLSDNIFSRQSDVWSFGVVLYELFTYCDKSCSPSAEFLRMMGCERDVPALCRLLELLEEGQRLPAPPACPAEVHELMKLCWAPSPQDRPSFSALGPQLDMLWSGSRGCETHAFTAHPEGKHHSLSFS

[7] = target: T2, Tyrosine-protein kinase JAK2 (Homo sapiens, UniProt O60674); assay: Inhibition of human recombinant N-terminal hexahistidine tagged JAK2 JH1 catalytic domain (835 to 1132 residues) expressed in baculovirus infected Sf9 cells using Tyr6 peptide as substrate incubated for 30 secs under shaking condition measured after 1 hr by Z'-LYTE assay
T2 sequence (O60674 whole entry, the tested form may be a part): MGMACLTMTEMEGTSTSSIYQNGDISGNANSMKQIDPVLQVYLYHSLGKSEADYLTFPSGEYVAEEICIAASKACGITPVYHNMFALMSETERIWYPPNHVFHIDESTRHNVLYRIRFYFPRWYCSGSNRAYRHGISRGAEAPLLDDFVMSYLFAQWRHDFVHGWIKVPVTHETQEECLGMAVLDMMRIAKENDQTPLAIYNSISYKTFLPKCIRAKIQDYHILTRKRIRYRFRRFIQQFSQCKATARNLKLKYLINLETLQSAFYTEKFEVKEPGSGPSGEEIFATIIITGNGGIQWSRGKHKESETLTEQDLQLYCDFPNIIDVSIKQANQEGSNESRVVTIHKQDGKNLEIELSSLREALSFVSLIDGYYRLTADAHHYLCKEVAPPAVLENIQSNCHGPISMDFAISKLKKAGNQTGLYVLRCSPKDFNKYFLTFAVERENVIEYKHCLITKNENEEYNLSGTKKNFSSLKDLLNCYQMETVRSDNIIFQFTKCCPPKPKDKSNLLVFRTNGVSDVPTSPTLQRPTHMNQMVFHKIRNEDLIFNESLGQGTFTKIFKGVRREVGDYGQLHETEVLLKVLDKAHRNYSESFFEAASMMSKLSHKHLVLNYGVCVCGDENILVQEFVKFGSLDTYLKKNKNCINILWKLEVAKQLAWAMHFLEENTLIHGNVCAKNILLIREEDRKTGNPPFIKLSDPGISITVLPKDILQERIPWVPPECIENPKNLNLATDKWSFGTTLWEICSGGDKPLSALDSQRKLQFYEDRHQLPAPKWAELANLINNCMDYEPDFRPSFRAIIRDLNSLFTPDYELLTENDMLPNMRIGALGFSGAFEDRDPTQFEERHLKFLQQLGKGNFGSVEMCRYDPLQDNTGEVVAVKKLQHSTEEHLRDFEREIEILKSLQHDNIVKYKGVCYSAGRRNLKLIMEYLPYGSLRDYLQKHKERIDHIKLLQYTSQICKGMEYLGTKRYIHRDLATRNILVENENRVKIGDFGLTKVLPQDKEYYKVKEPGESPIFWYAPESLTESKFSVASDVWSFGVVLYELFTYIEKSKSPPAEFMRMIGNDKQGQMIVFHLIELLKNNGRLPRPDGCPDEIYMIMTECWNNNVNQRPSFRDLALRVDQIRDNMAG

[8] = Toxicity in incomplete Freund's adjuvant-induced Wistar rat arthritic model assessed as effect on body weight growth at 10 to 50 mg/kg, po administered daily for 28 days starting from 8 days post-immunization measured every 3 days during compound dosing; format: organism-based; conditions: in vivo
Rattus norvegicus [9] = assay: Antiarthritic activity in incomplete Freund's adjuvant-induced Wistar rat arthritic model assessed as decrease in arthritic incidences at 10 to 50 mg/kg, po administered daily for 28 days starting from 8 days post-immunization measured daily during compound dosing; format: functional, organism-based
Rattus norvegicus [10] = assay: Antiarthritic activity in incomplete Freund's adjuvant-induced Wistar rat arthritic model assessed as decrease in arthritis swelling score at 50 mg/kg, po administered daily for 28 days starting from 8 days post-immunization measured daily during compound dosing; format: functional, organism-based
Rattus norvegicus [11] = assay: Antiarthritic activity in po dosed incomplete Freund's adjuvant-induced Wistar rat arthritic model assessed as reduction in foot swelling administered daily for 28 days starting from 8 days post-immunization measured daily during compound dosing; format: functional, organism-based
[12] = target: T2, Tyrosine-protein kinase JAK2; assay: Inhibition of human recombinant N-terminal hexahistidine tagged JAK2 JH1 catalytic domain (835 to 1132 residues) expressed in baculovirus infected Sf9 cells at 1 uM using Tyr6 peptide as substrate incubated for 30 secs under shaking condition measured after 1 hr by Z'-LYTE assay relative to control
[13] = target: T2, Tyrosine-protein kinase JAK2; conditions: Sf9
[14] = Toxicity in incomplete Freund's adjuvant-induced Wistar rat arthritic model assessed as effect on body weight growth at 0.3 mg/kg, po administered daily for 28 days starting from 8 days post-immunization measured every 3 days during compound dosing; format: organism-based; conditions: in vivo
Rattus norvegicus [15] = assay: Antiarthritic activity in incomplete Freund's adjuvant-induced arthritis model Wistar rat at 0.3 mg/kg, po administered daily for 28 days starting from 8 days post-immunization measured daily during compound; format: functional, organism-based

**Q.** Which Ratio IC50 (Homo sapiens [1]) does the source give for CC(Oc1cc(-c2cccc(N3CCNCC3)c2)cnc1N)c1cc(F)ccc1Cl (stereo not drawn) here?
**A.** 4

**Q.** And the Ratio IC50 (Homo sapiens [2])?
**A.** 107

**Q.** And the pIC50 [3]?
**A.** 5.60

**Q.** What about the Ratio IC50 (Homo sapiens [4]) of the same compound?
**A.** 94

**Q.** What about the pIC50 (HEL) of the same compound?
**A.** 5.14

**Q.** And the pIC50 [5]?
**A.** 6.92

**Q.** What about the pIC50 [6] of the same compound?
**A.** 5.55

**Q.** With CC(Oc1cc(-c2cnn(C3CCNCC3)c2)cnc1N)c1c(Cl)ccc(F)c1Cl (stereo not drawn) as the compound, how does the pIC50 (HEL) read?
**A.** 5.18

**Q.** With COc1ccc(F)c(Cl)c1C(C)Oc1cc(-c2cnn(C3CCNCC3)c2)cnc1N (stereo not drawn) as the compound, how does the Ratio IC50 (Homo sapiens [1]) read?
**A.** 46

**Q.** What about the Ratio IC50 (Homo sapiens [2]) of the same compound?
**A.** 66

**Q.** And the pIC50 [7]?
**A.** 7.59

**Q.** And the pIC50 [3]?
**A.** 6.11

**Q.** And the Ratio IC50 (Homo sapiens [4])?
**A.** 30

**Q.** What about the pIC50 (HEL) of the same compound?
**A.** 4.87

**Q.** And the pIC50 [5]?
**A.** 5.91

**Q.** And the pIC50 [6]?
**A.** 5.75

**Q.** With CC(Oc1cc(-c2cnn(C3CCNCC3)c2)cnc1N)C1CCCCC1 (stereo not drawn) as the compound, how does the pIC50 (HEL) read?
**A.** 4.68

**Q.** With CC(Oc1cc(-c2cccnc2)cnc1N)c1c(Cl)ccc(F)c1Cl (stereo not drawn) as the compound, how does the pIC50 [7] read?
**A.** 5.52

**Q.** And the pIC50 (HEL)?
**A.** 4.70

**Q.** With CCC(Oc1cc(-c2cnn(C3CCNCC3)c2)cnc1N)c1c(Cl)ccc(F)c1Cl (stereo not drawn) as the compound, how does the pIC50 (HEL) read?
**A.** 5.00

**Q.** With CC(Oc1cc(-c2cnn(C3CCNCC3)c2)cnc1N)c1ccccc1 (stereo not drawn) as the compound, how does the pIC50 [7] read?
**A.** 6.67

**Q.** What about the pIC50 (HEL) of the same compound?
**A.** 4.53

**Q.** Which results are given for COc1ccc(F)cc1C(C)Oc1cc(-c2cnn(C3CCNCC3)c2)cnc1N (stereo not drawn)?
**A.** Ratio IC50 (Homo sapiens [1]): 598; Ratio IC50 (Homo sapiens [2]): 528; pIC50 [3]: 6.10; Ratio IC50 (Homo sapiens [4]): 264; pIC50 (HEL): 5.38; pIC50 [5]: 5.75; pIC50 [6]: 5.80

**Q.** Which results are given for CC(Oc1cc(-c2cnn(C3CCNCC3)c2)cnc1N)c1cc(F)ccc1Cl (stereo not drawn)?
**A.** Activity [8]: Non-Toxic; Ratio IC50 (Homo sapiens [1]): 110; Ratio IC50 (Homo sapiens [2]): 86; pIC50 [7]: 8.22; pIC50 [3]: 5.89; Activity (Rattus norvegicus [9]): Active; Activity (Rattus norvegicus [10]): Active; Ratio IC50 (Homo sapiens [4]): 216; Activity (Rattus norvegicus [11]): Dose-dependent effect; pIC50 (HEL): 4.82; pIC50 [5]: 6.18; pIC50 [6]: 6.29

**Q.** With CC(Oc1cc(-c2cccc(C3CCNCC3)c2)cnc1N)c1cc(F)ccc1Cl (stereo not drawn) as the compound, how does the pIC50 (HEL) read?
**A.** 5.21

**Q.** Which results are given for CC(Oc1cc(-c2ccccc2)cnc1N)c1c(Cl)ccc(F)c1Cl (stereo not drawn)?
**A.** inhibition [12]: 7.15%; pIC50 (HEL): < 4.00

**Q.** With CC(Oc1cc(-c2cnn(C3CCNCC3)c2)cnc1N)c1c(Cl)cccc1Cl (stereo not drawn) as the compound, how does the pIC50 (HEL) read?
**A.** 4.55

**Q.** With CC(Oc1cc(-c2cnn(C3CCOCC3)c2)cnc1N)c1c(Cl)ccc(F)c1Cl (stereo not drawn) as the compound, how does the pIC50 [7] read?
**A.** 7.19

**Q.** What about the pIC50 (HEL) of the same compound?
**A.** < 4.00

**Q.** Which ΔTm [13] does the source give for C[C@@H](Oc1cc(-c2cnn(C3CCNCC3)c2)cnc1N)c1c(Cl)ccc(F)c1Cl [CRIZOTINIB] here?
**A.** 7.88 °C

**Q.** And the pIC50 (HEL)?
**A.** 5.33

**Q.** With CN(Cc1cnc2nc(N)nc(N)c2n1)c1ccc(C(=O)N[C@@H](CCC(=O)O)C(=O)O)cc1 [METHOTREXATE] as the compound, how does the Activity [14] read?
**A.** Toxic

**Q.** And the Activity (Rattus norvegicus [15])?
**A.** Active

**Q.** Which results are given for CC(Oc1cc(-c2cn[nH]c2)cnc1N)c1cc(F)ccc1Cl (stereo not drawn)?
**A.** Ratio IC50 (Homo sapiens [1]): 5; Ratio IC50 (Homo sapiens [2]): 60; pIC50 [3]: 5.84; Ratio IC50 (Homo sapiens [4]): 91; pIC50 (HEL): 5.31; pIC50 [5]: 7.09; pIC50 [6]: 6.02

**Q.** With CC(Oc1cc(-c2cncc(N3CCNCC3)c2)cnc1N)c1c(Cl)ccc(F)c1Cl (stereo not drawn) as the compound, how does the pIC50 [7] read?
**A.** 6.92

**Q.** What about the pIC50 (HEL) of the same compound?
**A.** 5.13

**Q.** With CC(Oc1cc(-c2ccc(C3CCNCC3)cc2)cnc1N)c1cc(F)ccc1Cl (stereo not drawn) as the compound, how does the pIC50 (HEL) read?
**A.** 4.80

**Q.** With N#CC[C@H](C1CCCC1)n1cc(-c2ncnc3[nH]ccc23)cn1 [RUXOLITINIB] as the compound, how does the pIC50 (HEL) read?
**A.** 5.12

**Q.** With CC(Oc1cc(-c2ccc(N3CCNCC3)cc2)cnc1N)c1cc(F)ccc1Cl (stereo not drawn) as the compound, how does the pIC50 (HEL) read?
**A.** 4.71

**Q.** What does the source list for CC(Nc1cc(-c2cnn(C3CCNCC3)c2)cnc1N)c1c(Cl)ccc(F)c1Cl (stereo not drawn)?
**A.** pIC50 [7]: 6.90; pIC50 (HEL): 4.97

**Q.** Which results are given for CC(Oc1cc(-c2ccc(N3CCNCC3)nc2)cnc1N)c1c(Cl)ccc(F)c1Cl (stereo not drawn)?
**A.** pIC50 [7]: 6.09; pIC50 (HEL): 5.11

**Q.** With CC(Oc1cc(-c2ccccc2)cnc1N)c1cc(F)ccc1Cl (stereo not drawn) as the compound, how does the pIC50 (HEL) read?
**A.** < 4.00
